Assay results taken from patent publication US8802597B2, “Herbicidal pyrimidines” (E I du Pont de Nemours and Company, priority 2003, dated 2014).

Key:
Assay type in all cases: in vivo
[1] = tested on: velvetleaf (Abutilon theophrasti); experiment: Test B pre/postemergence
Text: (§1) Seeds selected from barnyardgrass (Echinochloa crus-galli), Surinam grass (Brachiaria decumbens), cocklebur (Xanthium strumarium), corn (Zea mays), crabgrass (Digitaria sanguinalis), giant foxtail (Setaria faberii), lambsquarters (Chenopodium album), morningglory (Ipomoea coccinea), pigweed (Amaranthus retroflexus), velvetleaf (Abutilon theophrasti), and wheat (Triticum aestivum) were planted and treated preemergence with test chemicals formulated in a non-phytotoxic solvent mixture which included a surfactant.
(§2) At the same time, plants selected from these crop and weed species and also blackgrass (Alopecurus myosuroides) and wild oat (Avena fatua) were treated with postemergence applications of test chemicals formulated in the same manner. Plants ranged in height from 2 to 18 cm (1- to 4-leaf stage) for postemergence treatments. Plant species in the flooded paddy test consisted of rice (Oryza sativa), umbrella sedge (Cyperus difformis), duck salad (Heteranthera limosa) and barnyardgrass (Echinochloa crus-galli) grown to the 2-leaf stage for testing. Treated plants and controls were maintained in a greenhouse for 13 to 15 days, after which time all species were compared to controls and visually evaluated. Plant response ratings, summarized in Table B, are based on a scale of 0 to 100 where 0 is no effect and 100 is complete control. A dash (-) response means no test result.

[2] = tested on: cocklebur (Xanthium strumarium); experiment: Test B pre/postemergence
Text: as §1, §2

[3] = tested on: Surinam grass (Brachiaria decumbens); experiment: Test B pre/postemergence
Text: as §1, §2

[4] = tested on: crabgrass (Digitaria sanguinalis); experiment: Test B pre/postemergence
Text: as §1, §2

[5] = tested on: pigweed (Amaranthus retroflexus); experiment: Test B pre/postemergence
Text: as §1, §2

corn (Zea mays) = experiment: Test B pre/postemergence
Text: as §1, §2

[6] = tested on: lambsquarters (Chenopodium album); experiment: Test B pre/postemergence; conditions: Postemergence; for Lambsquarters plant response rating: 125 g ai/ha, scale 0 to 100 (0 no effect, 100 complete control); for Plant response rating, Lambsquarters: 500 g ai/ha, scale 0 to 100
Text: as §1, §2

[7] = tested on: barnyardgrass (Echinochloa crus-galli); experiment: Test B pre/postemergence
Text: as §1, §2

[8] = tested on: morningglory (Ipomoea coccinea); experiment: Test B pre/postemergence
Text: as §1, §2

[9] = tested on: giant foxtail (Setaria faberii); experiment: Test B pre/postemergence
Text: as §1, §2

[10] = tested on: wheat (Triticum aestivum); experiment: Test B pre/postemergence
Text: as §1, §2

wild oat (Avena fatua) = experiment: Test B postemergence; conditions: for Oat, Wild plant response rating: 125 g ai/ha, scale 0 to 100 (0 no effect, 100 complete control); for Plant response rating, Oat, Wild: 500 g ai/ha, scale 0 to 100
Text: as §1, §2

[11] = tested on: blackgrass (Alopecurus myosuroides); experiment: Test B postemergence; conditions: for Blackgrass plant response rating: 125 g ai/ha, scale 0 to 100 (0 no effect, 100 complete control); for Plant response rating, Blackgrass: 500 g ai/ha, scale 0 to 100
Text: as §1, §2

[12] = Postemergence, 125 g ai/ha, scale 0 to 100 (0 no effect, 100 complete control)
[13] = Postemergence, 500 g ai/ha, scale 0 to 100
[14] = Preemergence, 125 g ai/ha, scale 0 to 100 (0 no effect, 100 complete control)
[15] = Preemergence, 500 g ai/ha, scale 0 to 100 (0 no effect, 100 complete control)

## CCOC(=O)c1nc(C2CC2)nc(NOCc2ccccc2)c1Br [Compound 54]
[1]; [12]
  Velvetleaf plant response rating: 50
[1]; [13]
  Plant response rating, Velvetleaf: 60
[1]; [14]
  Plant response rating, Velvetleaf: 10
[1]; [15]
  Plant response rating, Velvetleaf: 80
[2]; [12]
  Cocklebur plant response rating: 20
[2]; [13]
  Plant response rating, Cocklebur: 80
[2]; [14]
  Plant response rating, Cocklebur: 50
[2]; [15]
  Plant response rating, Cocklebur: 90
[3]; [12]
  Surinam Grass plant response rating: 0
[3]; [13]
  Plant response rating, Surinam Grass: 0
[3]; [14]
  Plant response rating, Surinam Grass: 0
[3]; [15]
  Plant response rating, Surinam Grass: 0
[4]; [12]
  Crabgrass plant response rating: 20
[4]; [13]
  Plant response rating, Crabgrass: 30
[4]; [14]
  Plant response rating, Crabgrass: 0
[4]; [15]
  Plant response rating, Crabgrass: 0
[5]; [12]
  Pigweed plant response rating: 80
[5]; [13]
  Plant response rating, Pigweed: 90
[5]; [14]
  Plant response rating, Pigweed: 100
[5]; [15]
  Plant response rating, Pigweed: 100
Corn (Zea mays); [12]
  Corn plant response rating: 0
Corn (Zea mays); [13]
  Plant response rating, Corn: 20
Corn (Zea mays); [14]
  Plant response rating, Corn: 0
Corn (Zea mays); [15]
  Plant response rating, Corn: 0
[6]
  Lambsquarters plant response rating: 80
  Plant response rating, Lambsquarters: 90
[7]; [12]
  Barnyardgrass plant response rating: 0
[7]; [13]
  Plant response rating, Barnyardgrass: 70
[7]; [14]
  Plant response rating, Barnyardgrass: 0
[7]; [15]
  Plant response rating, Barnyardgrass: 40
[8]; [12]
  Morningglory plant response rating: 80
[8]; [13]
  Plant response rating, Morningglory: 90
[8]; [14]
  Plant response rating, Morningglory: 0
[9]; [12]
  Foxtail, Giant plant response rating: 20
[9]; [13]
  Plant response rating, Foxtail, Giant: 30
[9]; [14]
  Plant response rating, Foxtail, Giant: 0
[9]; [15]
  Plant response rating, Foxtail, Giant: 0
[10]; [12]
  Wheat plant response rating: 0
[10]; [13]
  Plant response rating, Wheat: 20
[10]; [14]
  Plant response rating, Wheat: 0
[10]; [15]
  Plant response rating, Wheat: 0
Wild oat (Avena fatua)
  Oat, Wild plant response rating: 0
  Plant response rating, Oat, Wild: 40
[11]
  Blackgrass plant response rating: 40
  Plant response rating, Blackgrass: 40

## CCOC(=O)c1nc(C2CC2)nc(NOC(C)(C)C)c1Br [Compound 55]
[1]; [12]
  Velvetleaf plant response rating: 10
[1]; [13]
  Plant response rating, Velvetleaf: 30
[1]; [14]
  Plant response rating, Velvetleaf: 50
[1]; [15]
  Plant response rating, Velvetleaf: 90
[2]; [12]
  Cocklebur plant response rating: 20
[2]; [13]
  Plant response rating, Cocklebur: 80
[2]; [14]
  Plant response rating, Cocklebur: 70
[2]; [15]
  Plant response rating, Cocklebur: 90
[3]; [12]
  Surinam Grass plant response rating: 0
[3]; [13]
  Plant response rating, Surinam Grass: 0
[3]; [14]
  Plant response rating, Surinam Grass: 0
[3]; [15]
  Plant response rating, Surinam Grass: 50
[4]; [12]
  Crabgrass plant response rating: 0
[4]; [13]
  Plant response rating, Crabgrass: 30
[4]; [14]
  Plant response rating, Crabgrass: 50
[4]; [15]
  Plant response rating, Crabgrass: 60
[5]; [12]
  Pigweed plant response rating: 70
[5]; [13]
  Plant response rating, Pigweed: 80
[5]; [14]
  Plant response rating, Pigweed: 80
[5]; [15]
  Plant response rating, Pigweed: 100
Corn (Zea mays); [12]
  Corn plant response rating: 0
Corn (Zea mays); [13]
  Plant response rating, Corn: 20
Corn (Zea mays); [14]
  Plant response rating, Corn: 0
Corn (Zea mays); [15]
  Plant response rating, Corn: 0
[6]
  Lambsquarters plant response rating: 70
  Plant response rating, Lambsquarters: 90
[7]; [12]
  Barnyardgrass plant response rating: 0
[7]; [13]
  Plant response rating, Barnyardgrass: 50
[7]; [14]
  Plant response rating, Barnyardgrass: 0
[7]; [15]
  Plant response rating, Barnyardgrass: 60
[8]; [12]
  Morningglory plant response rating: 80
[8]; [13]
  Plant response rating, Morningglory: 90
[8]; [14]
  Plant response rating, Morningglory: 80
[8]; [15]
  Plant response rating, Morningglory: 100
[9]; [12]
  Foxtail, Giant plant response rating: 20
[9]; [13]
  Plant response rating, Foxtail, Giant: 20
[9]; [14]
  Plant response rating, Foxtail, Giant: 0
[9]; [15]
  Plant response rating, Foxtail, Giant: 0
[10]; [12]
  Wheat plant response rating: 0
[10]; [13]
  Plant response rating, Wheat: 0
[10]; [14]
  Plant response rating, Wheat: 0
[10]; [15]
  Plant response rating, Wheat: 70
Wild oat (Avena fatua)
  Oat, Wild plant response rating: 0
  Plant response rating, Oat, Wild: 20
[11]
  Blackgrass plant response rating: 30
  Plant response rating, Blackgrass: 40

## CCOC(=O)c1nc(C2CC2)nc(N2CCCC2)c1Br [Compound 56]
[1]; [12]
  Velvetleaf plant response rating: 0
[1]; [13]
  Plant response rating, Velvetleaf: 0
[1]; [14]
  Plant response rating, Velvetleaf: 0
[1]; [15]
  Plant response rating, Velvetleaf: 30
[2]; [12]
  Cocklebur plant response rating: 0
[2]; [13]
  Plant response rating, Cocklebur: 20
[2]; [14]
  Plant response rating, Cocklebur: 0
[2]; [15]
  Plant response rating, Cocklebur: 30
[3]; [12]
  Surinam Grass plant response rating: 0
[3]; [13]
  Plant response rating, Surinam Grass: 0
[3]; [14]
  Plant response rating, Surinam Grass: 0
[3]; [15]
  Plant response rating, Surinam Grass: 0
[4]; [12]
  Crabgrass plant response rating: 0
[4]; [13]
  Plant response rating, Crabgrass: 0
[4]; [14]
  Plant response rating, Crabgrass: 0
[4]; [15]
  Plant response rating, Crabgrass: 0
[5]; [12]
  Pigweed plant response rating: 50
[5]; [13]
  Plant response rating, Pigweed: 70
[5]; [15]
  Plant response rating, Pigweed: 80
Corn (Zea mays); [12]
  Corn plant response rating: 0
Corn (Zea mays); [13]
  Plant response rating, Corn: 0
Corn (Zea mays); [14]
  Plant response rating, Corn: 0
Corn (Zea mays); [15]
  Plant response rating, Corn: 0
[6]
  Lambsquarters plant response rating: 20
  Plant response rating, Lambsquarters: 30
[7]; [12]
  Barnyardgrass plant response rating: 0
[7]; [13]
  Plant response rating, Barnyardgrass: 30
[7]; [14]
  Plant response rating, Barnyardgrass: 0
[7]; [15]
  Plant response rating, Barnyardgrass: 0
[8]; [12]
  Morningglory plant response rating: 0
[8]; [13]
  Plant response rating, Morningglory: 50
[8]; [15]
  Plant response rating, Morningglory: 20
[9]; [12]
  Foxtail, Giant plant response rating: 0
[9]; [13]
  Plant response rating, Foxtail, Giant: 0
[9]; [14]
  Plant response rating, Foxtail, Giant: 0
[9]; [15]
  Plant response rating, Foxtail, Giant: 0
[10]; [12]
  Wheat plant response rating: 0
[10]; [13]
  Plant response rating, Wheat: 0
[10]; [14]
  Plant response rating, Wheat: 0
[10]; [15]
  Plant response rating, Wheat: 0
Wild oat (Avena fatua)
  Oat, Wild plant response rating: 0
  Plant response rating, Oat, Wild: 20
[11]
  Blackgrass plant response rating: 0
  Plant response rating, Blackgrass: 20

## CCOC(=O)c1nc(C2CC2)nc(NOCC(=O)O)c1Br [Compound 125]
[1]; [12]
  Velvetleaf plant response rating: 0
[1]; [13]
  Plant response rating, Velvetleaf: 50
[1]; [14]
  Plant response rating, Velvetleaf: 10
[1]; [15]
  Plant response rating, Velvetleaf: 90
[2]; [12]
  Cocklebur plant response rating: 40
[2]; [13]
  Plant response rating, Cocklebur: 60
[2]; [14]
  Plant response rating, Cocklebur: 30
[2]; [15]
  Plant response rating, Cocklebur: 90
[3]; [12]
  Surinam Grass plant response rating: 0
[3]; [13]
  Plant response rating, Surinam Grass: 10
[3]; [14]
  Plant response rating, Surinam Grass: 0
[3]; [15]
  Plant response rating, Surinam Grass: 0
[4]; [12]
  Crabgrass plant response rating: 20
[4]; [13]
  Plant response rating, Crabgrass: 30
[4]; [14]
  Plant response rating, Crabgrass: 0
[4]; [15]
  Plant response rating, Crabgrass: 100
[5]; [12]
  Pigweed plant response rating: 60
[5]; [13]
  Plant response rating, Pigweed: 60
[5]; [14]
  Plant response rating, Pigweed: 30
[5]; [15]
  Plant response rating, Pigweed: 90
Corn (Zea mays); [12]
  Corn plant response rating: 0
Corn (Zea mays); [13]
  Plant response rating, Corn: 0
Corn (Zea mays); [14]
  Plant response rating, Corn: 0
Corn (Zea mays); [15]
  Plant response rating, Corn: 0
[6]
  Lambsquarters plant response rating: 60
  Plant response rating, Lambsquarters: 70
[7]; [12]
  Barnyardgrass plant response rating: 0
[7]; [13]
  Plant response rating, Barnyardgrass: 70
[7]; [14]
  Plant response rating, Barnyardgrass: 0
[8]; [12]
  Morningglory plant response rating: 70
[8]; [13]
  Plant response rating, Morningglory: 90
[8]; [14]
  Plant response rating, Morningglory: 30
[8]; [15]
  Plant response rating, Morningglory: 100
[9]; [12]
  Foxtail, Giant plant response rating: 0
[9]; [13]
  Plant response rating, Foxtail, Giant: 40
[9]; [14]
  Plant response rating, Foxtail, Giant: 0
[9]; [15]
  Plant response rating, Foxtail, Giant: 0
[10]; [12]
  Wheat plant response rating: 0
[10]; [13]
  Plant response rating, Wheat: 0
[10]; [14]
  Plant response rating, Wheat: 0
[10]; [15]
  Plant response rating, Wheat: 0
Wild oat (Avena fatua)
  Oat, Wild plant response rating: 0
  Plant response rating, Oat, Wild: 20
[11]
  Blackgrass plant response rating: 0
  Plant response rating, Blackgrass: 20
